Patent US7749981B2, “Drug-eluting stents coated with non-nucleotide P2Y12 receptor antagonist compound” (Inspire Pharmaceuticals, Inc., priority 2005, dated 2010)

Test system: washed human platelets
Assay: Inhibition of ADP-induced platelet aggregation in washed human platelets
Format: cell-based
Experimental: Isolation of Platelets: Human blood is obtained from informed healthy adult volunteers. Blood is collected into one-sixth volume of acid/citrate/dextrose (ACD) buffer (85 mM sodium citrate, 65 mM citric acid, and 100 mM glucose). Collected blood is placed in a water bath at 37° C. for 30 minutes. Blood is then centrifuged at 275×g for 16 minutes at room temperature and the platelet-rich plasma is removed and centrifuged at 2200×g for 13 minutes at room temperature. The platelet pellet is resuspended in 40 mL of HEPES-buffered Tyrode's solution (137 mM NaCl, 2.7 mM KCl, 1 mM MgCl2, 2 mM CaCl2, 12 mM NaHCO3, 0.36 mM NaH2PO4, 5.5 mM glucose, 5 mM HEPES pH 7.4, 0.35% bovine serum albumin or 0.35% human serum albumin) containing 10 U/mL heparin and 5 μM (final concentration) prostaglandin 12 (PGI2). The platelet suspension is incubated in a 37° C. water bath for 10 minutes and then 5 μM (final conc.) PGI2 is added just before centrifugation at 1900×g for 8 minutes. The resulting pellet is resuspended in 40 mL of HEPES-buffered Tyrode's solution containing 5 μM (final concentration) PGI2 and then is incubated for 10 minutes in a 37° C. water bath. A small aliquot (500 μL) of the platelet suspension is removed for platelet counting. Prior to centrifugation 5 μM (final concentration) PGI2 is added to the suspension and then the suspension is centrifuged at 1900×g for 8 minutes. The pellet is resuspended at a density of 5×10^8 cells/mL in HEPES-buffered Tyrode's solution containing 0.05 U/mL apyrase.
Aggregation Studies: ADP-induced platelet aggregation is determined by measuring the transmission of light through a 0.5 ml suspension of stirred (1000 rpm) washed platelets in a lumi-aggregometer at 37° C. (Chrono-Log Corp. Havertown, Pa.). The baseline of the instrument is set using 0.5 ml of Hepes-buffered Tyrode's solution. Prior to aggregation measurements, the platelet suspension is supplemented with 1 mg/ml fibrinogen. Platelet aggregation is initiated by the addition of indicated concentrations of ADP or other agonists, and the light transmission is continuously recorded for at least 8 min. When inhibitors of platelet aggregation are tested, platelets are incubated for 2 min in the presence of indicated concentrations of inhibitor before addition of ADP or other agonists, and the response is recorded for at least 8 min. The potency of agonists and inhibitors of platelet aggregation is calculated from both the rate of aggregation and the maximal extent of aggregation obtained for each determination by fitting the data to a four-parameter logistic equation using the GraphPad software package (GraphPad Corp. San Diego, Calif.).
IC50 values represent the concentration of antagonist necessary to inhibit by 50% the aggregation elicited by a given concentration of ADP.
Platelet IC50 data were determined using washed human platelets, according to the protocol of example 14. Agonist challenge (ADP) typically in the range of 1-5 μM.

IC50 (Homo sapiens, Platelet, read-out: PLATELET DATA IC50 (uM) Washed Platelets, washed human platelets, agonist challenge (ADP) typically 1-5 μM, average of two experiments or more): 0.512 µM
SMILES: CCNC(=O)Nc1ncnc2c1ncn2C1OC(CNCC(=O)O)C2O[C@H](/C=C/c3ccccc3)OC21 (stereo partly drawn) [Compound 191, ({6-[6-(3-Ethyl-ureido)-purin-9-yl]-2-trans-styryl-tetrahydro-furo[3,4-d][1,3]dioxol-4-ylmethyl}-amino)-acetic acid]
activity as antagonists of P2Y12-mediated platelet aggregation (in words) (comment on Table 1 data, washed human platelets): P2Y12 antagonist activity can be obtained
